This note sets out measurements from patent US20110039762A1, “TARGETED ANTIMICROBIAL MOIETIES” (C3 JIAN, INC., priority 2009, published 2011).

Entries after “also recorded” stand apart in the source; their conditions may differ. Bridge positions count the residues as written; N and C are the ends. Square brackets hold non-standard residues; d marks the D form. Ends that are not written are not given here. dOrn = NCCC[C@@H](N)C(=O)O; Orn = NCCC[C@H](N)C(=O)O

The subject of one assay is S. pneumoniae. The assay is described as follows: Kill or inhibit growth/proliferation; morphology, biofilm and growth disruption (Tables 5, 6). Further: test concentration or dose not given here. It counts as cell-based, Streptococcus pneumoniae. On the set-up: key: A: Peptide aggregates; B: Less hyphal formation; Clumps; Diffuse clumps and small polyps; F: Diffuse growth; H: Thin; I: Growth inhibition; Microcolony formation; Rippled; Small polyps; Thick; W: Halo formation on top, microlonies on bottom.

Assay [1] deals with microorganisms (e.g., bacteria, yeasts, fungi). The assay is described as follows: Targeting peptide binding to target microorganisms (Table 3). As to conditions: preferably 1x PBS; for Target(s) (microorganisms bound by the targeting peptide): peptide binding in aqueous buffers varied by peptide solubility; for Target(s): microorganism the targeting peptide binds, binding in aqueous buffers varied by peptide solubility.

Turning to “PF-220 (VDPADDGTRHIRPEDGDPIEIDE; Peptide with targeting and/or antimicrobial activity)”, in the assay with S. pneumoniae, the “Organism, effect” value is “S. pneumoniae (H)”.
Turning to “PF-415 (MIDVTIGQKSKTGAFNASYSICFSGENFSF; Peptide with targeting and/or antimicrobial activity)”, in the assay with S. pneumoniae, the “Organism, effect” value is reported as “S. pneumoniae (D)”.
Regarding “PF-419 (VVTGKVGSLPQIK; Peptide with targeting and/or antimicrobial activity)”, in the assay on S. pneumoniae, the “Organism, effect” value was “S. pneumoniae (H)”.
Still for that read-out and setting: under “PF-449 (MPTTKSKQKGWTNTKKASNTQ; Peptide with targeting and/or antimicrobial activity)” stands “S. pneumoniae (H)”; under “PF-455 (MARNDDDIKKIKGTLGQSPEVYGERKLPYT; Peptide with targeting and/or antimicrobial activity)”, “S. pneumoniae (A)”.
On the same count and under the same terms, the result for “PF-468 (EDNKDKKDKKDK; Peptide with targeting and/or antimicrobial activity)” reads “S. pneumoniae (H)”; that for “PF-485 (KNSMSRSIALID; Peptide with targeting and/or antimicrobial activity)”, “S. pneumoniae (A)”.
In the case of “PF-644 (chain 1 TSGLIIGENGLNGL; chain 2 TSGLIIGENGLNGL; Peptide with targeting and/or antimicrobial activity)”, the “Organism, effect” value with S. pneumoniae was “S. pneumoniae (H)”. Besides, in assay [1], the “Target(s) (microorganisms bound by the targeting peptide)” value is recorded as “Mycobacteria spp”.
As for “PF-651 (chain 1 PRWPTGAGRHR; chain 2 PRWPTGAGRHR; Peptide with targeting and/or antimicrobial activity)”, the “Organism, effect (morphology, biofilm and growth disruption)” value with S. pneumoniae was “S. pneumoniae (H)”. The “Target(s) (microorganisms bound by the targeting peptide)” value in assay [1] is given as “Mycobacteria spp”.
Take “PF-652 (chain 1 FLAPARPDLQAQRQALAQ; chain 2 FLAPARPDLQAQRQALAQ; Peptide with targeting and/or antimicrobial activity)”: the “Organism, effect (morphology, biofilm and growth disruption)” value in the assay with S. pneumoniae was “S. pneumoniae (A)”. Moreover, the “Target(s) (microorganisms bound by the targeting peptide)” value in assay [1] is given as “Mycobacteria spp”.
The like results for “PF-653 (chain 1 QSVHPLPAETPVADVI; chain 2 QSVHPLPAETPVADVI; Peptide with targeting and/or antimicrobial activity)” were, in that order, “S. pneumoniae (H)” and “Mycobacteria spp”.
The like results for “PF-660 (chain 1 TDPQATAAPRRRTSPR; chain 2 TDPQATAAPRRRTSPR; Peptide with targeting and/or antimicrobial activity)” were, in that order, “S. pneumoniae (H)” and “Mycobacteria spp”.
Consider “PF-662 (chain 1 GKQSRAHGPVASRREFRRKSG; chain 2 GKQSRAHGPVASRREFRRKSG; Peptide with targeting and/or antimicrobial activity)”, for which, in the assay with S. pneumoniae, the “Organism, effect (morphology, biofilm and growth disruption)” value is given as “S. pneumoniae (A)”. In assay [1], the “Target(s) (microorganisms bound by the targeting peptide)” value is listed as “Mycobacteria spp”.
The like results for “PF-663 (chain 1 ATLIPRKA; chain 2 ATLIPRKA; Peptide with targeting and/or antimicrobial activity)” were, in that order, “S. pneumoniae (A)” and “Mycobacteria spp”.
The like results for “PF-665 (chain 1 VLRVATAVGEVPTGL; chain 2 VLRVATAVGEVPTGL; Peptide with targeting and/or antimicrobial activity)” were, in that order, “S. pneumoniae (H)” and “Mycobacteria spp”.
The like results for “PF-666 (chain 1 PNRRSRPR; chain 2 PNRRSRPR; Peptide with targeting and/or antimicrobial activity)” were, in that order, “S. pneumoniae (A)” and “Mycobacteria spp”.
In the case of “PF-682 (chain 1 RRGKSEQGLSRR; chain 2 RRGKSEQGLSRR; Peptide with targeting and/or antimicrobial activity)”, in the assay on S. pneumoniae, the “Organism, effect (morphology, biofilm and growth disruption)” value is “S. pneumoniae (A)”. In assay [1], the “Target(s) (microorganisms bound by the targeting peptide)” value is “Mycobacteria spp”.
The like results for “PF-687 (chain 1 AKRVLSLAVAPHRRQPVQGT; chain 2 AKRVLSLAVAPHRRQPVQGT; Peptide with targeting and/or antimicrobial activity)” were, in that order, “S. pneumoniae (A)” and “Mycobacteria spp”.
On to “PF-688 (chain 1 ARNHAVIPAG; chain 2 ARNHAVIPAG; Peptide with targeting and/or antimicrobial activity)”, for which, in the assay with S. pneumoniae, the “Organism, effect (morphology, biofilm and growth disruption)” value was “S. pneumoniae (A)”. In addition, the “Target(s) (microorganisms bound by the targeting peptide)” value in assay [1] was “Mycobacteria spp”.
The like results for “PF-691 (chain 1 HRTVEFGVLGTYLVSGGSL; chain 2 HRTVEFGVLGTYLVSGGSL; Peptide with targeting and/or antimicrobial activity)” were, in that order, “S. pneumoniae (R)” and “Mycobacteria spp”.
The like results for “PF-693 (chain 1 PDPAR; chain 2 PDPAR; Peptide with targeting and/or antimicrobial activity)” were, in that order, “S. pneumoniae (A)” and “Mycobacteria spp”.
The like results for “PF-696 (chain 1 IRSGISAAYARPLR; chain 2 IRSGISAAYARPLR; Peptide with targeting and/or antimicrobial activity)” were, in that order, “S. pneumoniae (H)” and “Mycobacteria spp”.
As for “PF-699 (chain 1 GRAGVKCRRPTGR; chain 2 GRAGVKCRRPTGR; Peptide with targeting and/or antimicrobial activity)”, in the assay with S. pneumoniae, the “Organism, effect (morphology, biofilm and growth disruption)” value was “S. pneumoniae (A)”. Moreover, the “Target(s) (microorganisms bound by the targeting peptide)” value in assay [1] is “Mycobacteria spp”.
As for “PF-700 (chain 1 LNWPFTGR; chain 2 LNWPFTGR; Peptide with targeting and/or antimicrobial activity)”, in the assay with S. pneumoniae, the “Organism, effect (morphology, biofilm and growth disruption)” value is recorded as “S. pneumoniae (C)”. For the same substance, in assay [1], the “Target(s) (microorganisms bound by the targeting peptide)” value is “Mycobacteria spp”.
As for “PF-702 (chain 1 LSGRLAGRR; chain 2 LSGRLAGRR; Peptide with targeting and/or antimicrobial activity)”, the “Organism, effect (morphology, biofilm and growth disruption)” value with S. pneumoniae was “S. pneumoniae (H)”. Also, the “Target(s) (microorganisms bound by the targeting peptide)” value in assay [1] was “Mycobacteria spp”.
The like results for “PF-704 (chain 1 APAARAAL; chain 2 APAARAAL; Peptide with targeting and/or antimicrobial activity)” were, in that order, “S. pneumoniae (C)” and “Mycobacteria spp”.
Consider “PF-S023 (MAEDERRALKRRTNRGRTRTRKRITV; Peptide with targeting and/or antimicrobial activity)”, for which the “Target(s) (microorganisms bound by the targeting peptide)” value in assay [1] was “S. epidermidis and MRSA”.
With “PF-S024 (SKRGRKRKDRRKKKANHGKRPNS; Peptide with targeting and/or antimicrobial activity)”, the “Target(s)” value in assay [1] is listed as “Corynebacteria”.
As for “PF-S026 (TELKYNGEEYLLLTQRDILAVIEK; Peptide with targeting and/or antimicrobial activity)”, the “Target(s) (microorganisms bound by the targeting peptide)” value in assay [1] was “S. epidermidis and MRSA and C. jeikeium”.
Same read-out and setting: under “PF-S029 (TSDTQSQSPWLFDNADIVNIYPVQLMHSSDND; Peptide with targeting and/or antimicrobial activity)” stands “M. luteus; also recorded: P. mirabilis; also recorded: E. coli; also recorded: C. albicans; also recorded: C. jeikeium; also recorded: C. jejuni”.
As for “Py Pf 12 ([dS]KG[Orn][dS]SGK[dOrn]ES; lactam 8-C; not fully specified)”, the “Target(s)” value in assay [1] is “P. fluorescens”.
On the same count and under the same terms, under “TT-305 (ARNALNMRDVPVDAAIIGIIDGMDEE; Peptide with targeting and/or antimicrobial activity)” stands “F. nucleatum”; under “TT-306 (KILNEAEGKLLKVIEKNGEIDIEEI; Peptide with targeting and/or antimicrobial activity)”, “F. nucleatum”.
The same measure, in the same setting: the result for “TT-307 (NGDKKAKEELDKWDEVIKELNIQF; Peptide with targeting and/or antimicrobial activity)” reads “F. nucleatum”; that for “TT-308 (GLVIIPNLIALIILFSQVRQQTKDYFSNPKLSSR; Peptide with targeting and/or antimicrobial activity)”, “F. nucleatum”.
The same measure, in the same setting: the result for “TT-309 (EPLPLTKYDKKDTEMKKVFKEILAGKVGYEKEEE; Peptide with targeting and/or antimicrobial activity)” reads “F. nucleatum”.
Consider “TT-310 (TKLKKNNKLLSAKKENTLHTKDK; Peptide with targeting and/or antimicrobial activity)”, for which the “Target(s)” value in assay [1] was “F. nucleatum”.
With “TT-311 (AIFDAMHNL; Peptide with targeting and/or antimicrobial activity)”, in assay [1], the “Target(s)” value is “S. mutans; also recorded: S. sobrinus”.
